Test results taken from paper PMC7211202 (Investigational New Drugs, 2019).

Assay: Patient incidence of adverse events (CTCAE version 4.0)
Assay type: in vivo
Conditions: 240-mg dose expansion
Source text: Each patient was monitored for 21 days for the occurrence of dose-limiting toxicities (DLTs), defined as febrile neutropenia, neutropenic infection, grade 4 neutropenia lasting >7 days, grade ≥ 3 thrombocytopenia lasting >7 days (solid tumors only), grade 3 thrombocytopenia with grade ≥ 2 bleeding (solid tumors only), grade 3 or 4 thrombocytopenia with grade > 1 bleeding (multiple myeloma only), grade 4 thrombocytopenia (solid tumors only), or grade 4 thrombocytopenia lasting >14 days (multiple myeloma only), or as grade ≥ 3 nausea, vomiting, or diarrhea after support; grade 3 fatigue lasting >7 days; any other grade ≥ 3 adverse event (AE); grade ≥ 3 kidney injury (multiple myeloma only), or treatment-related AEs not returning to grade ≤ 1 (solid tumors only) per Common Terminology Criteria for Adverse Events (CTCAE), version 4.0. The MTD was defined as the maximum dose, at which the probability of a DLT was ≤25% in Part 1A and ≤ 33% in Parts 1B and 1C. Treatment continued until disease progression, intolerable toxicity, or withdrawal of consent.
AEs were recorded for all enrolled patients.

CC(C)[C@@H](CS(=O)(=O)C(C)C)N1C(=O)[C@@](C)(CC(=O)O)C[C@H](c2cccc(Cl)c2)[C@H]1c1ccc(Cl)cc1 [AMG 232]
AE resulting in treatment discontinuation: fatigue: 2 n | AE resulting in treatment discontinuation: vomiting: 4 n | Patients with AEs resulting in treatment discontinuation: 13 (19%) n (%) | Patients with any serious, treatment-related AE (DDLPS (n = 10)): 0 n (%) | Patients with any treatment-emergent AE (DDLPS (n = 10)): 9 (90) n (%) | Patients with any treatment-emergent serious AE (DDLPS (n = 10)): 4 (40) n (%) | Patients with any treatment-related AE (DDLPS (n = 10)): 9 (90) n (%) | Patients with any treatment-related AE, Grade 3 (DDLPS (n = 10)): 0 n (%) | Patients with any treatment-related AE, Grade 4 (DDLPS (n = 10)): 0 n (%) | Patients with any treatment-related AE, Grade 5 (DDLPS (n = 10)): 0 n (%) | Serious, treatment-related AE: Dehydration (grade 3) (DDLPS (n = 10)): 0 n (%) | Serious, treatment-related AE: Diarrhea (grade 3) (DDLPS (n = 10)): 0 n (%) | Serious, treatment-related AE: Hyperamylasemia (grade 3) (DDLPS (n = 10)): 0 n (%) | Serious, treatment-related AE: Hyperlipasemia (grade 3) (DDLPS (n = 10)): 0 n (%) | Serious, treatment-related AE: Nausea (grade 3) (DDLPS (n = 10)): 0 n (%) | Serious, treatment-related AE: Pulmonary embolism (grade 3) (DDLPS (n = 10)): 0 n (%) | Serious, treatment-related AE: Vomiting (grade 3) (DDLPS (n = 10)): 0 n (%) | Treatment-related AE: Anemia (DDLPS (n = 10)): 0 n (%) | Treatment-related AE: Asthenia (DDLPS (n = 10)): 1 (10) n (%) | Treatment-related AE: Decrease appetite (DDLPS (n = 10)): 4 (40) n (%) | Treatment-related AE: Diarrhea (DDLPS (n = 10)): 6 (60) n (%) | Treatment-related AE: Dysgeusia (DDLPS (n = 10)): 1 (10) n (%) | Treatment-related AE: Fatigue (DDLPS (n = 10)): 7 (70) n (%) | Treatment-related AE: Nausea (DDLPS (n = 10)): 8 (80) n (%) | Treatment-related AE: Neutropenia (DDLPS (n = 10)): 0 n (%) | Treatment-related AE: Thrombocytopenia (DDLPS (n = 10)): 1 (10) n (%) | Treatment-related AE: Vomiting (DDLPS (n = 10)): 2 (20) n (%) | Patients with any serious, treatment-related AE (ER + PR+ Breast (n = 8)): 2 (25) n (%) | Patients with any treatment-emergent AE (ER + PR+ Breast (n = 8)): 8 (100) n (%) | Patients with any treatment-emergent serious AE (ER + PR+ Breast (n = 8)): 3 (38) n (%) | Patients with any treatment-related AE (ER + PR+ Breast (n = 8)): 8 (100) n (%) | Patients with any treatment-related AE, Grade 3 (ER + PR+ Breast (n = 8)): 4 (50) n (%) | Patients with any treatment-related AE, Grade 4 (ER + PR+ Breast (n = 8)): 0 n (%) | Patients with any treatment-related AE, Grade 5 (ER + PR+ Breast (n = 8)): 0 n (%) | Serious, treatment-related AE: Dehydration (grade 3) (ER + PR+ Breast (n = 8)): 0 n (%) | Serious, treatment-related AE: Diarrhea (grade 3) (ER + PR+ Breast (n = 8)): 1 (13) n (%) | Serious, treatment-related AE: Hyperamylasemia (grade 3) (ER + PR+ Breast (n = 8)): 0 n (%) | Serious, treatment-related AE: Hyperlipasemia (grade 3) (ER + PR+ Breast (n = 8)): 0 n (%) | Serious, treatment-related AE: Nausea (grade 3) (ER + PR+ Breast (n = 8)): 1 (13) n (%) | Serious, treatment-related AE: Pulmonary embolism (grade 3) (ER + PR+ Breast (n = 8)): 0 n (%) | Serious, treatment-related AE: Vomiting (grade 3) (ER + PR+ Breast (n = 8)): 1 (13) n (%) | Treatment-related AE: Anemia (ER + PR+ Breast (n = 8)): 0 n (%) | Treatment-related AE: Asthenia (ER + PR+ Breast (n = 8)): 1 (13) n (%) | Treatment-related AE: Decrease appetite (ER + PR+ Breast (n = 8)): 5 (63) n (%) | Treatment-related AE: Diarrhea (ER + PR+ Breast (n = 8)): 7 (88) n (%) | Treatment-related AE: Dysgeusia (ER + PR+ Breast (n = 8)): 2 (25) n (%) | Treatment-related AE: Fatigue (ER + PR+ Breast (n = 8)): 3 (38) n (%) | Treatment-related AE: Nausea (ER + PR+ Breast (n = 8)): 6 (75) n (%) | Treatment-related AE: Neutropenia (ER + PR+ Breast (n = 8)): 0 n (%) | Treatment-related AE: Thrombocytopenia (ER + PR+ Breast (n = 8)): 0 n (%) | Treatment-related AE: Vomiting (ER + PR+ Breast (n = 8)): 6 (75) n (%) | Patients with any serious, treatment-related AE (ER + PR–Breast (n = 4)): 0 n (%) | Patients with any treatment-emergent AE (ER + PR–Breast (n = 4)): 4 (100) n (%) | Patients with any treatment-emergent serious AE (ER + PR–Breast (n = 4)): 1 (25) n (%) | Patients with any treatment-related AE (ER + PR–Breast (n = 4)): 4 (100) n (%) | Patients with any treatment-related AE, Grade 3 (ER + PR–Breast (n = 4)): 1 (25) n (%) | Patients with any treatment-related AE, Grade 4 (ER + PR–Breast (n = 4)): 0 n (%) | Patients with any treatment-related AE, Grade 5 (ER + PR–Breast (n = 4)): 0 n (%) | Serious, treatment-related AE: Dehydration (grade 3) (ER + PR–Breast (n = 4)): 0 n (%) | Serious, treatment-related AE: Diarrhea (grade 3) (ER + PR–Breast (n = 4)): 0 n (%) | Serious, treatment-related AE: Hyperamylasemia (grade 3) (ER + PR–Breast (n = 4)): 0 n (%) | Serious, treatment-related AE: Hyperlipasemia (grade 3) (ER + PR–Breast (n = 4)): 0 n (%) | Serious, treatment-related AE: Nausea (grade 3) (ER + PR–Breast (n = 4)): 0 n (%) | Serious, treatment-related AE: Pulmonary embolism (grade 3) (ER + PR–Breast (n = 4)): 0 n (%) | Serious, treatment-related AE: Vomiting (grade 3) (ER + PR–Breast (n = 4)): 0 n (%) | Treatment-related AE: Anemia (ER + PR–Breast (n = 4)): 1 (25) n (%) | Treatment-related AE: Asthenia (ER + PR–Breast (n = 4)): 1 (25) n (%) | Treatment-related AE: Decrease appetite (ER + PR–Breast (n = 4)): 3 (75) n (%) | Treatment-related AE: Diarrhea (ER + PR–Breast (n = 4)): 4 (100) n (%) | Treatment-related AE: Dysgeusia (ER + PR–Breast (n = 4)): 0 n (%) | Treatment-related AE: Fatigue (ER + PR–Breast (n = 4)): 0 n (%) | Treatment-related AE: Nausea (ER + PR–Breast (n = 4)): 3 (75) n (%) | Treatment-related AE: Neutropenia (ER + PR–Breast (n = 4)): 0 n (%) | Treatment-related AE: Thrombocytopenia (ER + PR–Breast (n = 4)): 0 n (%) | Treatment-related AE: Vomiting (ER + PR–Breast (n = 4)): 2 (50) n (%) | Patients with any serious, treatment-related AE (GBM (n = 10)): 1 (10) n (%) | Patients with any treatment-emergent AE (GBM (n = 10)): 10 (100) n (%) | Patients with any treatment-emergent serious AE (GBM (n = 10)): 7 (70) n (%) | Patients with any treatment-related AE (GBM (n = 10)): 10 (100) n (%) | Patients with any treatment-related AE, Grade 3 (GBM (n = 10)): 4 (40) n (%) | Patients with any treatment-related AE, Grade 4 (GBM (n = 10)): 0 n (%) | Patients with any treatment-related AE, Grade 5 (GBM (n = 10)): 0 n (%) | Serious, treatment-related AE: Dehydration (grade 3) (GBM (n = 10)): 0 n (%) | Serious, treatment-related AE: Diarrhea (grade 3) (GBM (n = 10)): 0 n (%) | Serious, treatment-related AE: Hyperamylasemia (grade 3) (GBM (n = 10)): 1 (10) n (%) | Serious, treatment-related AE: Hyperlipasemia (grade 3) (GBM (n = 10)): 1 (10) n (%) | Serious, treatment-related AE: Nausea (grade 3) (GBM (n = 10)): 0 n (%) | Serious, treatment-related AE: Pulmonary embolism (grade 3) (GBM (n = 10)): 0 n (%) | Serious, treatment-related AE: Vomiting (grade 3) (GBM (n = 10)): 0 n (%) | Treatment-related AE: Anemia (GBM (n = 10)): 0 n (%) | Treatment-related AE: Asthenia (GBM (n = 10)): 0 n (%) | Treatment-related AE: Decrease appetite (GBM (n = 10)): 1 (10) n (%) | Treatment-related AE: Diarrhea (GBM (n = 10)): 5 (50) n (%) | Treatment-related AE: Dysgeusia (GBM (n = 10)): 1 (10) n (%) | Treatment-related AE: Fatigue (GBM (n = 10)): 6 (60) n (%) | Treatment-related AE: Nausea (GBM (n = 10)): 4 (40) n (%) | Treatment-related AE: Neutropenia (GBM (n = 10)): 2 (20) n (%) | Treatment-related AE: Thrombocytopenia (GBM (n = 10)): 2 (20) n (%) | Treatment-related AE: Vomiting (GBM (n = 10)): 3 (30) n (%) | Patients with any serious, treatment-related AE (Multiple Myeloma (n = 10)): 2 (20) n (%) | Patients with any treatment-emergent AE (Multiple Myeloma (n = 10)): 10 (100) n (%) | Patients with any treatment-emergent serious AE (Multiple Myeloma (n = 10)): 4 (40) n (%) | Patients with any treatment-related AE (Multiple Myeloma (n = 10)): 10 (100) n (%) | Patients with any treatment-related AE, Grade 3 (Multiple Myeloma (n = 10)): 6 (60) n (%) | Patients with any treatment-related AE, Grade 4 (Multiple Myeloma (n = 10)): 3 (30) n (%) | Patients with any treatment-related AE, Grade 5 (Multiple Myeloma (n = 10)): 0 n (%) | Serious, treatment-related AE: Dehydration (grade 3) (Multiple Myeloma (n = 10)): 0 n (%) | Serious, treatment-related AE: Diarrhea (grade 3) (Multiple Myeloma (n = 10)): 0 n (%) | Serious, treatment-related AE: Hyperamylasemia (grade 3) (Multiple Myeloma (n = 10)): 0 n (%) | Serious, treatment-related AE: Hyperlipasemia (grade 3) (Multiple Myeloma (n = 10)): 0 n (%) | Serious, treatment-related AE: Nausea (grade 3) (Multiple Myeloma (n = 10)): 0 n (%) | Serious, treatment-related AE: Pulmonary embolism (grade 3) (Multiple Myeloma (n = 10)): 0 n (%) | Serious, treatment-related AE: Vomiting (grade 3) (Multiple Myeloma (n = 10)): 2 (20) n (%) | Treatment-related AE: Anemia (Multiple Myeloma (n = 10)): 1 (10) n (%) | Treatment-related AE: Asthenia (Multiple Myeloma (n = 10)): 4 (40) n (%) | Treatment-related AE: Decrease appetite (Multiple Myeloma (n = 10)): 4 (40) n (%) | Treatment-related AE: Diarrhea (Multiple Myeloma (n = 10)): 7 (70) n (%) | Treatment-related AE: Dysgeusia (Multiple Myeloma (n = 10)): 2 (20) n (%) | Treatment-related AE: Fatigue (Multiple Myeloma (n = 10)): 2 (20) n (%) | Treatment-related AE: Nausea (Multiple Myeloma (n = 10)): 4 (40) n (%) | Treatment-related AE: Neutropenia (Multiple Myeloma (n = 10)): 3 (30) n (%) | Treatment-related AE: Thrombocytopenia (Multiple Myeloma (n = 10)): 3 (30) n (%) | Treatment-related AE: Vomiting (Multiple Myeloma (n = 10)): 4 (40) n (%) | Patients with any serious, treatment-related AE (Other Solid (n = 16)): 0 n (%) | Patients with any treatment-emergent AE (Other Solid (n = 16)): 16 (100) n (%) | Patients with any treatment-emergent serious AE (Other Solid (n = 16)): 5 (31) n (%) | Patients with any treatment-related AE (Other Solid (n = 16)): 14 (88) n (%) | Patients with any treatment-related AE, Grade 3 (Other Solid (n = 16)): 4 (25) n (%) | Patients with any treatment-related AE, Grade 4 (Other Solid (n = 16)): 2 (13) n (%) | Patients with any treatment-related AE, Grade 5 (Other Solid (n = 16)): 0 n (%) | Serious, treatment-related AE: Dehydration (grade 3) (Other Solid (n = 16)): 0 n (%) | Serious, treatment-related AE: Diarrhea (grade 3) (Other Solid (n = 16)): 0 n (%) | Serious, treatment-related AE: Hyperamylasemia (grade 3) (Other Solid (n = 16)): 0 n (%)
